Measurements: PubChem BioAssay AID1963974 (Molecular Pharmacology Branch, DTP, NCI, 2024)

Tested on: 648629-189-R-J1-PDC spheroids with HUVEC/MSC, viability
Assay: Anticancer human tumor 648629-189-R-J1-PDC patient-derived bladder carcinoma cell line growth inhibition [PI3K]
Details: for IC50: curve of first compound; for viability, T/C: stronger effect = lower value
In short: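 Combination activity was assessed by viability in multicellular tumor spheroids carrying HUVEC and MSC components. Agents were tested with PI3K inhibitors from a Cmax-based top dose (or 10 microM) downward in half-log increments.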

[1] = second compound 0.0316 µM, first compound 0.0316 µM
[2] = second compound 0.0316 µM, first compound 0.1 µM
[3] = second compound 0.1 µM, first compound 0.0316 µM
[4] = second compound 0.1 µM, first compound 0.1 µM
[5] = second compound 0.316 µM, first compound 0.0316 µM
[6] = second compound 0.316 µM, first compound 0.1 µM
[7] = second compound 1 µM, first compound 0.0316 µM
[8] = second compound 1 µM, first compound 0.1 µM
[9] = second compound 3.16 µM, first compound 0.0316 µM
[10] = second compound 3.16 µM, first compound 0.1 µM
[11] = second compound 10 µM, first compound 0.0316 µM
[12] = second compound 10 µM, first compound 0.1 µM
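Note: spheroids exposed to agents for seven days before reading.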
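Throughout, for viability, T/C: percent of vehicle control luminescence where 100% = DMSO treated spheroids.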

CC(C)n1nc(-c2ccc3oc(N)nc3c2)c2c(N)ncnc21 + CC(Nc1ncnc2nc[nH]c12)c1cc2cccc(Cl)c2c(=O)n1-c1ccccc1
IC50 (second compound 0.0316 µM): 73 nM
IC50 (second compound 0.1 µM): 63.8 nM
IC50 (second compound 0.316 µM): 62.6 nM
IC50 (second compound 1 µM): 61.5 nM
IC50 (second compound 3.16 µM): 55.8 nM
IC50 (second compound 10 µM): 32.1 nM
viability, T/C (second compound 0.0316 µM, first compound 0.000316 µM): 93.2%
viability, T/C (second compound 0.0316 µM, first compound 0.001 µM): 96.1%
viability, T/C (second compound 0.0316 µM, first compound 0.00316 µM): 87.9%
viability, T/C (second compound 0.0316 µM, first compound 0.01 µM): 85.4%
viability, T/C [1]: 85.8%
viability, T/C [2]: 36.5%
viability, T/C (second compound 0.1 µM, first compound 0.000316 µM): 101%
viability, T/C (second compound 0.1 µM, first compound 0.001 µM): 86.5%
viability, T/C (second compound 0.1 µM, first compound 0.00316 µM): 101%
viability, T/C (second compound 0.1 µM, first compound 0.01 µM): 97.7%
viability, T/C [3]: 69.5%
viability, T/C [4]: 37.5%
viability, T/C (second compound 0.316 µM, first compound 0.000316 µM): 99.5%
viability, T/C (second compound 0.316 µM, first compound 0.001 µM): 107%
viability, T/C (second compound 0.316 µM, first compound 0.00316 µM): 104%
viability, T/C (second compound 0.316 µM, first compound 0.01 µM): 85.8%
viability, T/C [5]: 73.8%
viability, T/C [6]: 34.7%
viability, T/C (second compound 1 µM, first compound 0.000316 µM): 104%
viability, T/C (second compound 1 µM, first compound 0.001 µM): 89.6%
viability, T/C (second compound 1 µM, first compound 0.00316 µM): 101%
viability, T/C (second compound 1 µM, first compound 0.01 µM): 85.6%
viability, T/C [7]: 68.8%
viability, T/C [8]: 36.5%
viability, T/C (second compound 3.16 µM, first compound 0.000316 µM): 85.8%
viability, T/C (second compound 3.16 µM, first compound 0.001 µM): 103%
viability, T/C (second compound 3.16 µM, first compound 0.00316 µM): 91.4%
viability, T/C (second compound 3.16 µM, first compound 0.01 µM): 84.6%
viability, T/C [9]: 66.1%
viability, T/C [10]: 33.8%
viability, T/C (second compound 10 µM, first compound 0.000316 µM): 83.1%
viability, T/C (second compound 10 µM, first compound 0.001 µM): 87.1%
viability, T/C (second compound 10 µM, first compound 0.00316 µM): 81.4%
viability, T/C (second compound 10 µM, first compound 0.01 µM): 72.3%
viability, T/C [11]: 50.4%
viability, T/C [12]: 30.3%

CCCS(=O)(=O)Nc1ccc(F)c(C(=O)c2c[nH]c3ncc(-c4ccc(Cl)cc4)cc23)c1F + CC(Nc1ncnc2nc[nH]c12)c1cc2cccc(Cl)c2c(=O)n1-c1ccccc1
IC50 (second compound 0.0316 µM): 5230 nM
IC50 (second compound 0.1 µM): 5590 nM
IC50 (second compound 0.316 µM): 5270 nM
IC50 (second compound 1 µM): 5260 nM
IC50 (second compound 3.16 µM): 4280 nM
IC50 (second compound 10 µM): 3880 nM
viability, T/C [1]: 99.8%
viability, T/C [2]: 95.1%
viability, T/C (second compound 0.0316 µM, first compound 0.316 µM): 120%
viability, T/C (second compound 0.0316 µM, first compound 1 µM): 98.3%
viability, T/C (second compound 0.0316 µM, first compound 3.16 µM): 88.2%
viability, T/C (second compound 0.0316 µM, first compound 10 µM): 0.98%
viability, T/C [3]: 103%
viability, T/C [4]: 96.7%
viability, T/C (second compound 0.1 µM, first compound 0.316 µM): 91.8%
viability, T/C (second compound 0.1 µM, first compound 1 µM): 98.9%
viability, T/C (second compound 0.1 µM, first compound 3.16 µM): 100%
viability, T/C (second compound 0.1 µM, first compound 10 µM): 0.84%
viability, T/C [5]: 109%
viability, T/C [6]: 108%
viability, T/C (second compound 0.316 µM, first compound 0.316 µM): 99.2%
viability, T/C (second compound 0.316 µM, first compound 1 µM): 109%
viability, T/C (second compound 0.316 µM, first compound 3.16 µM): 89.4%
viability, T/C (second compound 0.316 µM, first compound 10 µM): 0.43%
viability, T/C [7]: 101%
viability, T/C [8]: 88.7%
viability, T/C (second compound 1 µM, first compound 0.316 µM): 96.2%
viability, T/C (second compound 1 µM, first compound 1 µM): 99.2%
viability, T/C (second compound 1 µM, first compound 3.16 µM): 89.1%
viability, T/C (second compound 1 µM, first compound 10 µM): 0.46%
viability, T/C [9]: 91.1%
viability, T/C [10]: 103%
viability, T/C (second compound 3.16 µM, first compound 0.316 µM): 92.2%
viability, T/C (second compound 3.16 µM, first compound 1 µM): 89.5%
viability, T/C (second compound 3.16 µM, first compound 3.16 µM): 67.6%
viability, T/C (second compound 3.16 µM, first compound 10 µM): 0.83%
viability, T/C [11]: 86.9%
viability, T/C [12]: 77.6%
viability, T/C (second compound 10 µM, first compound 0.316 µM): 81.9%
viability, T/C (second compound 10 µM, first compound 1 µM): 80.2%
viability, T/C (second compound 10 µM, first compound 3.16 µM): 60.6%
viability, T/C (second compound 10 µM, first compound 10 µM): 1.35%
